Publication PMC2775099 (Bioorganic & medicinal chemistry, 2009)

Target: rat nNOS (Rattus norvegicus, UniProt P29476)
Conditions: for potency with nNOS relative to 1: amine in the chain replaced with ether or amide

Row | Compound | loss of binding affinity relative to 1 (nNOS, amine replaced with amide) | potency with nNOS relative to 1
1 | Cc1cc(N)nc(CC2CNCC2NC(=O)CNCCc2cccc(F)c2)c1 (stereo not drawn) [compound 3, N-(4-((6-Amino-4-methylpyridin-2-yl)-methyl)-pyrrolidin-3-yl)-2-(3-fluorophenethylamino)-acetamide] | 3-4 fold | –
2 | Cc1cc(N)nc(CC2CNCC2NCCOCCc2cccc(F)c2)c1 (stereo not drawn) [compound 4, 6-((4-(2-(3-Fluorophenethoxy)ethylamino)pyrrolidin-3-yl)methyl)-4-methyl-pyridin-2-amine] | – | significant loss in potency
3 | Cc1cc(N)nc(CC2CNCC2OCCNC(=O)Cc2cccc(F)c2)c1 (stereo not drawn) [compound 6, N-(2-(4-((6-Amino-4-methylpyridin-2-yl)-methyl)pyrrolidin-3-yloxy)ethyl)-2-(3-fluorophenyl)acetamide] | – | significant loss in potency
